Data reported in ChEMBL document CHEMBL4813957, “Antitubercular properties of thiazolidin-4-ones - A review” (Eur J Med Chem, 2021).
Values after ≈ are worked out from the molar mass of the structure shown.

How the values were obtained:
[1] = system: Mycobacterium tuberculosis; assay: Antimycobacterial activity against Mycobacterium tuberculosis H37Rv ATCC 27294 incubated for 5 days by microplate alamar blue assay; format: functional; details: H37Rv ATCC 27294, 120 h, time 5 day
[2] = system: Mycobacterium tuberculosis; assay: Antimycobacterial activity against Mycobacterium tuberculosis H37Rv assessed as bacterial inhibition at 25 ug/ml by microplate alamar blue assay relative to control; format: functional
[3] = system: Mycobacterium tuberculosis; assay: Antimycobacterial activity against Mycobacterium tuberculosis H37Rv ATCC27294 incubated for 7 days by microplate alamar blue assay; format: functional; details: H37Rv ATCC 27294, 168 h, time 7 day
[4] = system: Mycobacterium tuberculosis; assay: Antimycobacterial activity against Mycobacterium tuberculosis H37Rv measured after 14 days by test tube dilution technique; format: functional; details: 336 h, time 14 day
[5] = system: Mycobacterium tuberculosis; assay: Antimycobacterial activity against Mycobacterium tuberculosis H37Rv measured after 21 days by test tube dilution technique; format: functional; details: 504 h, time 21 day
[6] = system: Mycobacterium tuberculosis; assay: Antimycobacterial activity against Mycobacterium tuberculosis H37Ra ATCC 25177 incubated for 7 days by microplate alamar blue assay; format: functional; details: H37Ra ATCC 25177, 168 h, time 7 day
[7] = system: Mycobacterium tuberculosis; assay: Bactericidal activity against Mycobacterium tuberculosis H37Ra ATCC 25177 assessed as ratio of MBC to MIC; format: functional
[8] = Selectivity index, ratio of IC50 for African green monkey Vero cells to MIC for antitubercular activity against Mycobacterium tuberculosis H37Ra ATCC 25177; format: toxicity
[9] = system: Mycobacterium tuberculosis; assay: Antimycobacterial activity against Mycobacterium tuberculosis H37Rv; format: functional
[10] = system: Mycobacterium tuberculosis; assay: Antimycobacterial activity against Mycobacterium tuberculosis H37Ra 7131 incubated for 21 days by broth dilution method; format: functional; details: H37Ra 7131, 504 h, time 21 day
[11] = system: Mycobacterium tuberculosis; assay: Antimycobacterial activity against Mycobacterium tuberculosis H37Rv assessed as growth inhibition at 6.25 ug/ml by microplate alamar blue assay relative to control; format: functional; details: read-out: GI
[12] = system: Mycobacterium tuberculosis; assay: Antimycobacterial activity against Mycobacterium tuberculosis H37Rv incubated for 7 days by microplate alamar blue assay; format: functional; details: 168 h, time 7 day
[13] = system: Mycolicibacterium smegmatis; assay: Antimycobacterial activity against Mycobacterium smegmatis ATCC 35797 incubated for 48 hrs by agar dilution method; format: functional
[14] = system: Mycobacterium tuberculosis; assay: Antimycobacterial activity against Mycobacterium tuberculosis H37Ra ATCC 25177 measured on 8th to 12th day by XTT reduction menadione assay; format: functional; details: time 8-12 day
[15] = system: Mycobacterium tuberculosis; assay: Antimycobacterial activity against Mycobacterium tuberculosis H37Ra; format: functional
[16] = system: Mycobacterium tuberculosis; assay: Antimycobacterial activity against Mycobacterium tuberculosis H37Rv by Lowenstein-Jensen method relative to control; format: functional

SMILES: COc1ccc(C2SCC(=O)N2NC(=O)c2ccncc2)cc1 (stereo unspecified)
- MIC [1]: 1.25 µg/mL (≈ 3.79 µM)

SMILES: CCCCCCCCCCCCN1C(=O)C(CC(=O)O)SC12CCCCCC2 (stereo unspecified)
- inhibition at 25 µg/mL [2]: 96%

SMILES: O=C(NN1C(=O)CSC1c1ccccc1Cl)c1cc(O)c(O)c(O)c1 (stereo unspecified)
- MIC [3]: 0.79 µg/mL (≈ 2.07 µM)

SMILES: O=C(NN1C(=O)CSC1c1cccc(O)c1)c1cc(O)c(O)c(O)c1 (stereo unspecified)
- MIC [3]: 0.79 µg/mL (≈ 2.18 µM)

SMILES: CC(C)(C)N1C(=O)CS/C1=N/NC(=O)COc1cnccn1
- MIC [4]: > 100 µg/mL
- MIC [5]: > 100 µg/mL

SMILES: NC(=S)N/N=C/c1ccc(OC(=O)/C=C2\SC(=O)NC2=O)c(Cl)c1
- MIC [6]: 0.031 µg/mL (≈ 0.0806 µM)
- Ratio [7]: 2
- selectivity ratio [8]: > 10

SMILES: O=C1/C(=C/c2ccccc2Cl)SC(c2ccccc2Cl)N1NCCNc1ncc([N+](=O)[O-])s1 (stereo unspecified)
- MIC [9]: 25 µg/mL (≈ 47.9 µM)

SMILES: N=C1S/C(=C\c2ccccc2)C(=O)N1NC(=O)c1ccncc1
- MIC [10]: 12 µg/mL (≈ 37 µM)

SMILES: CC1SC(c2ccc(OCc3ccccc3)cc2)N(NC(=O)C(O)(c2ccccc2)c2ccccc2)C1=O (stereo unspecified)
- inhibition of growth at 6.25 µg/mL [11]: 98%

SMILES: COc1ccc(C2SCC(=O)N2c2n[nH]c(=S)s2)cc1 (stereo unspecified)
- MIC [12]: 6.25 µg/mL (≈ 19.2 µM)

SMILES: Cc1ccc(/N=C2\SC(=O)C(=O)N2NC(=O)c2ccncc2)cc1
- MIC [10]: 78 µg/mL (≈ 229 µM)

SMILES: CCCCCCCCCCCCN1C(=O)C(CC(=O)O)SC12CCN(C(=O)C(N)C(C)CC)CC2 (stereo unspecified)
- inhibition at 25 µg/mL [2]: 97%

SMILES: CCCCCCCC1SCC(=O)N1NC(=O)c1ccncc1 (stereo unspecified)
- MIC [13]: > 25 µg/mL

SMILES: NC(=S)N/N=C/c1ccc(OC(=O)CC2SC(=O)NC2=O)c(Cl)c1 (stereo unspecified)
- MIC [6]: 0.031 µg/mL (≈ 0.0801 µM)
- Ratio [7]: 2
- selectivity ratio [8]: > 10

SMILES: N=C1SC(Br)(C(Br)c2ccccc2)C(=O)N1NC(=O)c1ccncc1 (stereo unspecified)
- MIC [10]: 13 µg/mL (≈ 26.8 µM)

SMILES: CCCCCCCCCC1SCC(=O)N1NC(=O)c1ccncc1 (stereo unspecified)
- MIC [13]: 25 µg/mL (≈ 71.5 µM)

SMILES: CCCCCCCCCCCC1SCC(=O)N1NC(=O)c1ccncc1 (stereo unspecified)
- MIC [13]: 6 µg/mL (≈ 15.9 µM)

SMILES: Cc1cc(NS(=O)(=O)c2ccc(N3C(=O)CSC3c3ccc(Cl)cc3)cc2)no1 (stereo unspecified)
- IC90 [14]: 0.43 µg/mL (≈ 0.956 µM)

SMILES: CC1SC(c2ccc(Cl)cc2)N(NC(=O)C(O)(c2ccccc2)c2ccccc2)C1=O (stereo unspecified)
- inhibition of growth at 6.25 µg/mL [11]: 99%

SMILES: CCOC(=O)C(C(C)C)N1C(=O)C(C)SC1c1ccc2c(c1)c1ccccc1n2CC (stereo unspecified)
- MIC [15]: 25 µg/mL (≈ 57 µM)

SMILES: Cc1cc(NS(=O)(=O)c2ccc(N3C(=O)CSC3c3ccc(F)cc3)cc2)no1 (stereo unspecified)
- IC90 [14]: 0.43 µg/mL (≈ 0.992 µM)

SMILES: CCOc1ccc(N2C(=O)CS/C2=N/NC(=O)COc2cnccn2)cc1
- MIC [4]: > 100 µg/mL
- MIC [5]: > 100 µg/mL

SMILES: Cc1ccc(C2SCC(=O)N2c2n[nH]c(=S)s2)cc1 (stereo unspecified)
- MIC [12]: 12.5 µg/mL (≈ 40.4 µM)

SMILES: COc1cc(C2SCC(=O)N2NC(=O)c2ccncc2)ccc1O (stereo unspecified)
- MIC [1]: 0.31 µg/mL (≈ 0.898 µM)

SMILES: CC(C)N1C(=O)CS/C1=N/NC(=O)COc1cnccn1
- MIC [4]: > 100 µg/mL
- MIC [5]: > 100 µg/mL

SMILES: CCCCCCCCCCC1SCC(=O)N1NC(=O)c1ccncc1 (stereo unspecified)
- MIC [13]: 25 µg/mL (≈ 68.8 µM)

SMILES: O=C(COc1cnccn1)N/N=C1/SCC(=O)N1c1ccc(Cl)cc1[N+](=O)[O-]
- MIC [4]: 85 µg/mL (≈ 201 µM)
- MIC [5]: 89 µg/mL (≈ 210 µM)

SMILES: O=C(COc1cnccn1)N/N=C1/SCC(=O)N1c1ccc(Cl)cc1Cl
- MIC [4]: > 100 µg/mL
- MIC [5]: > 100 µg/mL

SMILES: O=C(NN1C(=O)CSC1c1ccccc1)c1cc(O)c(O)c(O)c1 (stereo unspecified)
- MIC [3]: 0.79 µg/mL (≈ 2.28 µM)

SMILES: CCCCCCCCCCCCN1C(=O)C(CC(=O)O)SC12CCCCCCCC2 (stereo unspecified)
- inhibition at 25 µg/mL [2]: 96%

SMILES: O=C(NCCCNc1ncc([N+](=O)[O-])s1)N1C(=O)/C(=C/c2ccccc2)SC1c1ccccc1 (stereo unspecified)
- MIC [16]: 12.5 µg/mL (≈ 25.2 µM)

SMILES: O=C(NCCCNc1ncc([N+](=O)[O-])s1)N1C(=O)/C(=C/c2ccc(Br)cc2)SC1c1ccc(Br)cc1 (stereo unspecified)
- MIC [16]: 2.75 µg/mL (≈ 4.21 µM)

SMILES: O=C(NCCCNc1ncc([N+](=O)[O-])s1)N1C(=O)/C(=C/c2ccccc2[N+](=O)[O-])SC1c1ccccc1[N+](=O)[O-] (stereo unspecified)
- MIC [16]: 2.75 µg/mL (≈ 4.7 µM)

SMILES: NC(=S)N/N=C/c1ccc(OC(=O)CC2SC(=O)NC2=O)c(Br)c1 (stereo unspecified)
- MIC [6]: 0.031 µg/mL (≈ 0.0719 µM)
- Ratio [7]: 2
- selectivity ratio [8]: > 10

SMILES: O=C(COc1cnccn1)N/N=C1/SCC(=O)N1c1ccc(Cl)cc1
- MIC [4]: > 100 µg/mL
- MIC [5]: > 100 µg/mL

SMILES: N=C1SC(Br)(C(Br)c2ccc([N+](=O)[O-])cc2)C(=O)N1NC(=O)c1ccncc1 (stereo unspecified)
- MIC [10]: 11 µg/mL (≈ 20.8 µM)

SMILES: CCCCCCCCCCCCN1C(=O)C(CC(=O)O)SC12CCCC2 (stereo unspecified)
- inhibition at 25 µg/mL [2]: 97%

SMILES: O=C(NCCCNc1ncc([N+](=O)[O-])s1)N1C(=O)/C(=C/c2ccc(Cl)cc2)SC1c1ccc(Cl)cc1 (stereo unspecified)
- MIC [16]: 2.5 µg/mL (≈ 4.43 µM)

SMILES: COc1cc(/C=N/NC(N)=S)ccc1OC(=O)/C=C1\SC(=O)NC1=O
- MIC [6]: 0.031 µg/mL (≈ 0.0815 µM)
- Ratio [7]: 2
- selectivity ratio [8]: > 10

SMILES: O=C(NN1C(=O)CSC1c1ccc(O)cc1)c1cc(O)c(O)c(O)c1 (stereo unspecified)
- MIC [3]: 0.79 µg/mL (≈ 2.18 µM)

SMILES: COc1ccc(C2SCC(=O)N2c2nnc(S)s2)cc1OC (stereo unspecified)
- MIC [12]: 1.6 µg/mL (≈ 4.5 µM)

SMILES: Cc1cc(NS(=O)(=O)c2ccc(N3C(=O)CSC3c3c(Cl)cccc3Cl)cc2)no1 (stereo unspecified)
- IC90 [14]: 0.43 µg/mL (≈ 0.888 µM)
